{
  "source": "patent US20120040939A1",
  "about": "“MEDICINAL USE OF 5-BENZYLAMINOSALICYLIC ACID DERIVATIVE OR ITS SALT” (priority 2009, published 2012)",
  "type_in_all_cases": "in vivo",
  "key": {"Male ICR mice [1]": {"tested_on": "Male ICR mice", "experiment": "Tail suspension test (TST), antidepressant effect", "conditions": "twice daily, final 4 min of 6 min test, 1 h after treatment", "procedure": "The effectiveness of the compound was evaluated using a tail-suspension test as in vivo method for depression. In this test immobility time of animals typically for 5-10 minutes is recorded using a manual or an automated device.\n(§1) Male ICR mice weighing 28-30 g of body weight were used throughout the study. Experimental animals were kept in an animal breeding room with a 12 h dark/12 h light cycle and accommodated by 8 mice per cage supplied freely with water and feeding. The mice consisted of 8 animals per group were randomly allocated to the treatment groups.\n(§2) Compound 2 was suspended in 10% lutrol solution and the all suspended solutions were administered orally to the mice twice daily at a volume of 4 ml/kg. The control group was treated only with 10% lutrol solution in the same manner. All the treatment of drugs or vehicle to the animals were given 1 hour before the test (n=8/group).\nThis test was evaluated according to the method described in a previous publication [Psycopharmacology 85, 367-370, Steru et al. (1985)]. At the day of experiment, the mice were acclimatized in the testing room over 60 minutes and given with the compound, and then the test was conducted. After 1 h after drug treatment, the mice were taped with experimental adhesive tape, at approximately 1 cm from the tip of the tail. The mice were individually suspended on an experimental shelf about 58 cm above a table top by attaching the adhesive tape at the tip of the tail to the experimental shelf. And after that, total immobility time was measured for 6 min in the absence of noise. The total immobility time was measured during the final 4 min of a 6 min test session and the data were expressed as mean and analyzed by one-way ANOVA followed by Tukey's HSD (Honestly Significant Difference) post hoc comparison."}, "Sprague-Dawley (SD) rats": {"tested_on": "Sprague-Dawley (SD) rats", "experiment": "Water immersion restraint stress (WIRS) gastric damage model", "conditions": "30 mg/kg, given 1 hour before 10 hours WIRS", "procedure": "The Sprague-Dawley (SD) rats weighing 200 g of body weight were deprived of food for over 24 hours and then were given with the experimental compound. After 1 hour, the rats were placed in a stress cage and immersed into water at 24° C. for 10 hours to induce WIRS\nThe SD rats weighing 200 g of body weight were deprived of food for 24 h and then were given with 30 mg/kg of compound 2. After 1 hour, the rats were placed in a stress cage and immersed into water for 10 hours. After WIRS for 10 hours, the rats were sacrificed under anesthesia with ether. Each stomach was isolated, soaked and fixed in 10 ml of 2% formalin solution for 10 minutes, and then opened along the greater curvature of the stomach. After spreading the stomach, stress-induced hemorrhagic lesions were examined macroscopically, and the results were shown in FIG. 2."}, "Male ICR mice [2]": {"tested_on": "Male ICR mice", "experiment": "Locomotor activity using open field test", "conditions": "1.25-50 mg/kg oral, twice daily; 1 hour before the test", "procedure": "The locomotor activity using open field test measured to know influence of drug treatment on activity in animals. Male ICR mice weighing 20-23 g of body weight were used throughout the study.\nExperimental animals were kept in an animal breeding room with a […] cycle and accommodated by 8 mice per cage supplied freely with water and feeding. The mice consisted of 8 animals per group were randomly allocated to the treatment groups.\nas §2, with “and all” for “and”, “the” for “the all”, “5” for “4”\nThe open field was consisted of square arena (58 cm×58 cm) surrounded by a 30 cm height wall. […] At the start of each trial, a mouse was placed in a corner of the field and was allowed to freely move the arena and the moving trajectory for 5 min was measured. The behavior of animals was recorded and analyzed using a videotracking software (Etho Vision 3.0, Noldus Information Technology, Leesburg, Va.) attached to the ceiling above the middle of the arena.\nThe collected data were analyzed by one-way ANOVA followed by Tukey's HSD (Honestly Significant Difference) post hoc comparison."}, "male C57BL/6 mice [3]": {"tested_on": "male C57BL/6 mice", "experiment": "Forced swimming test, antidepressant effect", "conditions": "final 4 min of 6-min session", "procedure": "Forced swimming test is used to select compounds with therapeutic efficacy for depression. […] The immobility time is counted whenever the animal remained floating passively in the water without struggling except minimal movement to protrude its head above the water surface.\nas §1, with “Nine-week-old male C57BL/6” for “Male ICR”, “20-23” for “28-30”, “through this” for “throughout the”\nas §2, with “and all” for “and”, “the” for “the all”, “5” for “4”\nAt the day of the experiment, the mice were acclimatized in the testing room over 60 minutes, orally given with the compound 2 or vehicle control, and received the forced swimming test. For the forced swimming test, a mouse was individually forced to swim inside an open glass cylindrical bath with height of 26 cm and diameter of 14 cm filled with water at 24±1° C. up to 16 cm high from the bottom so that the mouse tail could not reach the bottom. One hour after the mouse were orally given compound 2 and control vehicle, then the mice were exposed to forced swimming for 6 min in the water bath and their movement was recorded using a video camera system. The total duration of immobility was measured as a mean during the final 4 min of a 6-min test session and the data were statistically analyzed with one-way ANOVA followed by Tukey's HSD (Honestly Significant Difference) post hoc comparison."}, "male C57BL/6 mice [4]": {"tested_on": "male C57BL/6 mice", "experiment": "Repeated restraint stress test with forced swim test as index for depression", "conditions": "for decrease of immobility time compared with stressed control group (control 2): forced swim test; for decrease of immobility time compared with unstressed group (control 1): no stress, forced swimming test", "procedure": "To test the efficacy of compounds on a stress-induced depression a restraint stress animal model was used. After evoking depression symptoms in a mouse corresponding to a human depression by exposing a stressed condition that it was placed in a narrow space to be unable to move, whether the compounds have any anti-depression effects were tested after treatment to this animal.\nas §1, with “Nine-week-old male C57BL/6 mice” for “Male ICR mice”, “weighing 20-23” for “weighing 28-30”, “used through this” for “used throughout the”, “by 5-6” for “by 8”, “of 11” for “of 8”\nas §2, with “and all” for “and”, “the” for “the all”, “5” for “4”, “(n=11/group).” for “(n=8/group).”\nAnimals were subjected to restraint-stress one hour after compound 2 or 10% lutrol was administered orally. Mice were exposed to restraint stress everyday 2 hr for 14 days and received a forced swim test such as <Example 4> as an index for depression."}, "male C57BL/6 mice [5]": {"tested_on": "male C57BL/6 mice", "experiment": "Stress-induced anxiety (restraint stress), elevated plus maze (EPM)", "conditions": "EPM 5 minutes", "procedure": "To evaluate the effect of compound 2 on stress-induced anxiety, we used a restraint stress animal model. Anxiety was evoked by exposing stress that a mice was restrained to be immovable in a narrow space, and whether the compound could show anxiolytic effect after administration the animals.\nWhen experimental animals are exposed to stress, various physiological changes occur, which can be measured through several behavioral tests. In this study, anxiety of experimental animals was evaluated by an elevated plus maze (EPM). EPM apparatus consisted of two open arms, and two closed arms which are horizontally crossed. It is designed that the cross path is located 60 cm above the floor for the animals to feel anxiety. […]\nAt the day of experiment, animals exposed to restraint stress after animals were acclimatized to testing room over 60 minutes, and then were orally administered with the compound. One hour after administration the oral administration of compound 2 or lutrol, experimental animals were placed at the center of EPM and the animal behaviors were recorded during total 5 minutes using a camera mounted on the ceiling and a computer program (etho vision 3.0 (Noldus Information Technology)). The collected data were expressed as % time spent in open arms and the statistical analysis was done using one-way ANOVA followed by LSD (Least significant difference) post hoc comparisons."}, "[6]": {"conditions": "2.5 mg/kg oral BID + restraint stress 2 hr daily for 14 days"}, "[7]": {"conditions": "5 mg/kg oral BID + restraint stress 2 hr daily for 14 days"}},
  "data": [
    {"compound": "O=C(O)c1cc(NCCc2ccc(C(F)(F)F)cc2)ccc1O", "note": "[compound 2, 2-hydroxy-5-[2-(4-trifluoromethyl-phenyl)-ethylamino]-benzoic acid]", "values": [
      {"measurement": "decrease of total immobility time compared with the control group", "setting": "Male ICR mice [1]; 1.25 mg/kg oral", "result": 46, "unit": "%"},
      {"measurement": "decrease of total immobility time compared with the control group", "setting": "Male ICR mice [1]; 2.5 mg/kg oral", "result": 43, "unit": "%"},
      {"measurement": "decrease of total immobility time compared with the control group", "setting": "Male ICR mice [1]; 5 mg/kg oral", "result": 42, "unit": "%"},
      {"measurement": "decrease of total immobility time compared with the control group", "setting": "Male ICR mice [1]; 12.5 mg/kg oral", "result": 38, "unit": "%"},
      {"measurement": "decrease of total immobility time compared with the control group", "setting": "Male ICR mice [1]; 25 mg/kg oral", "result": 54, "unit": "%"},
      {"measurement": "decrease of total immobility time compared with the control group", "setting": "Male ICR mice [1]; 50 mg/kg oral", "result": 57, "unit": "%"},
      {"measurement": "WIRS-induced gastric lesion index", "setting": "Sprague-Dawley (SD) rats", "result": "definitely reduced"},
      {"measurement": "locomotor activity (open field, 5 min)", "setting": "Male ICR mice [2]", "result": "not different among groups"},
      {"measurement": "decrease of immobility time compared with the vehicle control group", "setting": "male C57BL/6 mice [3]; 1.25 mg/kg oral BID", "result": 31, "unit": "%"},
      {"measurement": "decrease of immobility time compared with the vehicle control group", "setting": "male C57BL/6 mice [3]; 2.5 mg/kg oral BID", "result": 34, "unit": "%"},
      {"measurement": "decrease of immobility time compared with the vehicle control group", "setting": "male C57BL/6 mice [3]; 5 mg/kg oral BID", "result": 30, "unit": "%"},
      {"measurement": "decrease of immobility time compared with the vehicle control group", "setting": "male C57BL/6 mice [3]; 12.5 mg/kg oral BID", "result": 34, "unit": "%"},
      {"measurement": "decrease of immobility time compared with stressed control group (control 2)", "setting": "male C57BL/6 mice [4]; [6]", "result": 32, "unit": "%"},
      {"measurement": "decrease of immobility time compared with unstressed group (control 1)", "setting": "male C57BL/6 mice [4]; 2.5 mg/kg oral BID for 2 weeks", "result": 21, "unit": "%"},
      {"measurement": "decrease of immobility time compared with stressed control group (control 2)", "setting": "male C57BL/6 mice [4]; [7]", "result": 39, "unit": "%"},
      {"measurement": "decrease of immobility time compared with unstressed group (control 1)", "setting": "male C57BL/6 mice [4]; 5 mg/kg oral BID for 2 weeks", "result": 26, "unit": "%"},
      {"measurement": "% time spent in open arm, increase compared with the stressed group (control 2)", "setting": "male C57BL/6 mice [5]; [6]", "result": 24, "unit": "%"},
      {"measurement": "% time spent in open arm, increase compared with the stressed group (control 2)", "setting": "male C57BL/6 mice [5]; [7]", "result": 23, "unit": "%"}
    ]}
  ]
}
